{
  "source": "patent US20050197350A1",
  "about": "“Novel quinoline, tetrahydroquinazoline, and pyrimidine derivatives and methods of treatment related to the use thereof” (TAISHO PHARMACEUTICAL CO., LTD., priority 2003, published 2005)",
  "data": [
    {"tested_on": "MCH receptors", "assay": "MCH receptor activity class (method not given)", "conditions": "class by percent of control at 10^-7 M or IC50", "values": [
      {"smiles": "Cc1cc(F)ccc1NC(=S)N[C@H]1CC[C@@H](Nc2nc3c(c(N(C)C)n2)CCCC3)CC1", "note": "[compound 1775]", "class": "2 (Class 2: The value of percent of control at 10^−7 M was from 40% to 60% or the value of IC′50 was from 50 nM to 200 nM.)"},
      {"smiles": "COc1ccc(NC(=S)N[C@H]2CC[C@@H](Nc3nc4c(c(N(C)C)n3)CCCC4)CC2)c(C)c1", "note": "[compound 1776]", "class": "2 (Class 2: The value of percent of control at 10^−7 M was from 40% to 60% or the value of IC′50 was from 50 nM to 200 nM.)"},
      {"smiles": "COc1cc(OC)c(NC(=S)N[C@H]2CC[C@@H](Nc3nc4c(c(N(C)C)n3)CCCC4)CC2)cc1Cl", "note": "[compound 1777]", "class": "1 (Class 1: The value of percent of control at 10^−7 M was less than 40% or the value of IC50 was less than 50 nM.)"},
      {"smiles": "C[C@@H](NC(=S)N[C@H]1CC[C@@H](Nc2nc3c(c(N(C)C)n2)CCCC3)CC1)c1ccccc1", "note": "[compound 1778]", "class": "3 (Class 3 The value of percent of control at 10^−7 M was more than 60% or the value of IC50 was more than 200 nM.)"},
      {"smiles": "Cc1cccc(NC(=S)N[C@H]2CC[C@@H](Nc3nc4c(c(N(C)C)n3)CCCC4)CC2)c1C", "note": "[compound 1779]", "class": "3 (Class 3 The value of percent of control at 10^−7 M was more than 60% or the value of IC50 was more than 200 nM.)"},
      {"smiles": "CN(C)c1nc(N[C@H]2CC[C@@H](NC(=S)Nc3c(F)cc(Br)cc3Br)CC2)nc2c1CCCC2", "note": "[compound 1780, N-(2,4-dibromo-6-fluorophenyl)-N′-(cis-4-{[4-(dimethylamino)-5,6,7,8-tetrahydroquinazolin-2-yl]amino}cyclohexyl)thiourea]", "class": "2 (Class 2: The value of percent of control at 10^−7 M was from 40% to 60% or the value of IC′50 was from 50 nM to 200 nM.)"},
      {"smiles": "Cc1cc(Cl)cc(Cl)c1NC(=S)N[C@H]1CC[C@@H](Nc2nc3c(c(N(C)C)n2)CCCC3)CC1", "note": "[compound 1781, N-(2,4-dichloro-6-methylphenyl)-N′-(cis-4-{[4-(dimethylamino)-5,6,7,8-tetrahydroquinazolin-2-yl]amino}cyclohexyl)thiourea]", "class": "1 (Class 1: The value of percent of control at 10^−7 M was less than 40% or the value of IC50 was less than 50 nM.)"},
      {"smiles": "CCOc1ccccc1NC(=S)N[C@H]1CC[C@@H](Nc2nc3c(c(N(C)C)n2)CCCC3)CC1", "note": "[compound 1782]", "class": "2 (Class 2: The value of percent of control at 10^−7 M was from 40% to 60% or the value of IC′50 was from 50 nM to 200 nM.)"},
      {"smiles": "Cc1cccc(C(C)C)c1NC(=S)N[C@H]1CC[C@@H](Nc2nc3c(c(N(C)C)n2)CCCC3)CC1", "note": "[compound 1783]", "class": "3 (Class 3 The value of percent of control at 10^−7 M was more than 60% or the value of IC50 was more than 200 nM.)"},
      {"smiles": "CN(C)c1nc(N[C@H]2CC[C@@H](NC(=S)Nc3ccc4c(c3)OCCO4)CC2)nc2c1CCCC2", "note": "[compound 1784]", "class": "3 (Class 3 The value of percent of control at 10^−7 M was more than 60% or the value of IC50 was more than 200 nM.)"},
      {"smiles": "CN(C)c1nc(N[C@H]2CC[C@@H](NC(=S)Nc3ccc4c(c3)OCO4)CC2)nc2c1CCCC2", "note": "[compound 1785]", "class": "3 (Class 3 The value of percent of control at 10^−7 M was more than 60% or the value of IC50 was more than 200 nM.)"},
      {"smiles": "Cc1c(Cl)cccc1NC(=S)N[C@H]1CC[C@@H](Nc2nc3c(c(N(C)C)n2)CCCC3)CC1", "note": "[compound 1786]", "class": "3 (Class 3 The value of percent of control at 10^−7 M was more than 60% or the value of IC50 was more than 200 nM.)"},
      {"smiles": "CN(C)c1nc(N[C@H]2CC[C@@H](NC(=S)Nc3ccc(Br)cc3OC(F)(F)F)CC2)nc2c1CCCC2", "note": "[compound 1787]", "class": "2 (Class 2: The value of percent of control at 10^−7 M was from 40% to 60% or the value of IC′50 was from 50 nM to 200 nM.)"},
      {"smiles": "COc1cc(NC(=S)N[C@H]2CC[C@@H](Nc3nc4c(c(N(C)C)n3)CCCC4)CC2)c(OC)cc1Cl", "note": "[compound 1788]", "class": "2 (Class 2: The value of percent of control at 10^−7 M was from 40% to 60% or the value of IC′50 was from 50 nM to 200 nM.)"},
      {"smiles": "Cc1onc(-c2ccccc2)c1NC(=S)N[C@H]1CC[C@@H](Nc2nc3c(c(N(C)C)n2)CCCC3)CC1", "note": "[compound 1789]", "class": "3 (Class 3 The value of percent of control at 10^−7 M was more than 60% or the value of IC50 was more than 200 nM.)"},
      {"smiles": "CN(C)c1nc(NC2CCC(NC(=S)NC3CC4CCC3C4)CC2)nc2c1CCCC2", "note": "(stereo not shown) [compound 1790]", "class": "3 (Class 3 The value of percent of control at 10^−7 M was more than 60% or the value of IC50 was more than 200 nM.)"},
      {"smiles": "COC(=O)c1scc(C)c1NC(=S)N[C@H]1CC[C@@H](Nc2nc3c(c(N(C)C)n2)CCCC3)CC1", "note": "[compound 1791]", "class": "3 (Class 3 The value of percent of control at 10^−7 M was more than 60% or the value of IC50 was more than 200 nM.)"},
      {"smiles": "COC(=O)c1sccc1NC(=S)N[C@H]1CC[C@@H](Nc2nc3c(c(N(C)C)n2)CCCC3)CC1", "note": "[compound 1792]", "class": "3 (Class 3 The value of percent of control at 10^−7 M was more than 60% or the value of IC50 was more than 200 nM.)"},
      {"smiles": "CCCCc1ccc(NC(=S)N[C@H]2CC[C@@H](Nc3nc4c(c(N(C)C)n3)CCCC4)CC2)c(C)c1", "note": "[compound 1793]", "class": "3 (Class 3 The value of percent of control at 10^−7 M was more than 60% or the value of IC50 was more than 200 nM.)"},
      {"smiles": "CN(C)c1nc(N[C@H]2CC[C@@H](NC(=O)Nc3cc(Cl)cc(Cl)c3)CC2)nc2c1CCCC2", "note": "[compound 1794]", "class": "3 (Class 3 The value of percent of control at 10^−7 M was more than 60% or the value of IC50 was more than 200 nM.)"},
      {"smiles": "CN(C)c1nc(N[C@H]2CC[C@@H](NC(=O)Nc3cccc(Cl)c3Cl)CC2)nc2c1CCCC2", "note": "[compound 1795]", "class": "2 (Class 2: The value of percent of control at 10^−7 M was from 40% to 60% or the value of IC′50 was from 50 nM to 200 nM.)"},
      {"smiles": "Cc1ccc(NC(=O)N[C@H]2CC[C@@H](Nc3nc4c(c(N(C)C)n3)CCCC4)CC2)cc1", "note": "[compound 1796]", "class": "2 (Class 2: The value of percent of control at 10^−7 M was from 40% to 60% or the value of IC′50 was from 50 nM to 200 nM.)"},
      {"smiles": "CC(C)c1cccc(C(C)C)c1NC(=O)N[C@H]1CC[C@@H](Nc2nc3c(c(N(C)C)n2)CCCC3)CC1", "note": "[compound 1797, N-(2,6-diisopropylphenyl)-N′-(cis-4-{[4-(dimethylamino)-5,6,7,8-tetrahydroquinazolin-2-yl]amino}cyclohexyl)urea]", "class": "2 (Class 2: The value of percent of control at 10^−7 M was from 40% to 60% or the value of IC′50 was from 50 nM to 200 nM.)"},
      {"smiles": "Cc1ccc([N+](=O)[O-])c(NC(=O)N[C@H]2CC[C@@H](Nc3nc4c(c(N(C)C)n3)CCCC4)CC2)c1C", "note": "[compound 1798]", "class": "3 (Class 3 The value of percent of control at 10^−7 M was more than 60% or the value of IC50 was more than 200 nM.)"},
      {"smiles": "CN(C)c1nc(N[C@H]2CC[C@@H](NC(=O)Nc3c(Br)cc(F)cc3Br)CC2)nc2c1CCCC2", "note": "[compound 1799]", "class": "3 (Class 3 The value of percent of control at 10^−7 M was more than 60% or the value of IC50 was more than 200 nM.)"},
      {"smiles": "CN(C)c1nc(N[C@H]2CC[C@@H](NC(=O)Nc3c(Cl)cccc3Cl)CC2)nc2c1CCCC2", "note": "[compound 1800]", "class": "3 (Class 3 The value of percent of control at 10^−7 M was more than 60% or the value of IC50 was more than 200 nM.)"},
      {"smiles": "COc1ccc(C)cc1NC(=O)N[C@H]1CC[C@@H](Nc2nc3c(c(N(C)C)n2)CCCC3)CC1", "note": "[compound 1801]", "class": "3 (Class 3 The value of percent of control at 10^−7 M was more than 60% or the value of IC50 was more than 200 nM.)"},
      {"smiles": "Cc1cccc([N+](=O)[O-])c1NC(=O)N[C@H]1CC[C@@H](Nc2nc3c(c(N(C)C)n2)CCCC3)CC1", "note": "[compound 1802]", "class": "3 (Class 3 The value of percent of control at 10^−7 M was more than 60% or the value of IC50 was more than 200 nM.)"},
      {"smiles": "CN(C)c1nc(N[C@H]2CC[C@@H](NC(=O)Nc3ccc(F)c(F)c3)CC2)nc2c1CCCC2", "note": "[compound 1803]", "class": "3 (Class 3 The value of percent of control at 10^−7 M was more than 60% or the value of IC50 was more than 200 nM.)"},
      {"smiles": "CN(C)c1nc(N[C@H]2CC[C@@H](NC(=O)Nc3cc(F)cc(F)c3)CC2)nc2c1CCCC2", "note": "[compound 1804]", "class": "3 (Class 3 The value of percent of control at 10^−7 M was more than 60% or the value of IC50 was more than 200 nM.)"},
      {"smiles": "CN(C)c1nc(N[C@H]2CC[C@@H](NC(=O)Nc3ccc(F)c(Cl)c3)CC2)nc2c1CCCC2", "note": "[compound 1805]", "class": "3 (Class 3 The value of percent of control at 10^−7 M was more than 60% or the value of IC50 was more than 200 nM.)"},
      {"smiles": "CC(=O)c1cccc(NC(=O)N[C@H]2CC[C@@H](Nc3nc4c(c(N(C)C)n3)CCCC4)CC2)c1", "note": "[compound 1806]", "class": "3 (Class 3 The value of percent of control at 10^−7 M was more than 60% or the value of IC50 was more than 200 nM.)"},
      {"smiles": "CC(=O)c1ccc(NC(=O)N[C@H]2CC[C@@H](Nc3nc4c(c(N(C)C)n3)CCCC4)CC2)cc1", "note": "[compound 1808]", "class": "3 (Class 3 The value of percent of control at 10^−7 M was more than 60% or the value of IC50 was more than 200 nM.)"},
      {"smiles": "CN(C)c1nc(N[C@H]2CC[C@@H](NC(=O)NC(=O)c3ccccc3)CC2)nc2c1CCCC2", "note": "[compound 1809]", "class": "3 (Class 3 The value of percent of control at 10^−7 M was more than 60% or the value of IC50 was more than 200 nM.)"},
      {"smiles": "CN(C)c1nc(N[C@H]2CC[C@@H](NC(=O)NC(C)(C)C)CC2)nc2c1CCCC2", "note": "[compound 1810]", "class": "3 (Class 3 The value of percent of control at 10^−7 M was more than 60% or the value of IC50 was more than 200 nM.)"},
      {"smiles": "CN(C)c1nc(N[C@H]2CC[C@@H](NC(=O)Nc3cc(C(F)(F)F)cc(C(F)(F)F)c3)CC2)nc2c1CCCC2", "note": "[compound 1811]", "class": "3 (Class 3 The value of percent of control at 10^−7 M was more than 60% or the value of IC50 was more than 200 nM.)"},
      {"smiles": "CN(C)c1nc(N[C@H]2CC[C@@H](NC(=O)NCc3ccccc3)CC2)nc2c1CCCC2", "note": "[compound 1812]", "class": "3 (Class 3 The value of percent of control at 10^−7 M was more than 60% or the value of IC50 was more than 200 nM.)"},
      {"smiles": "CN(C)c1nc(N[C@H]2CC[C@@H](NC(=O)Nc3ccc(Br)cc3)CC2)nc2c1CCCC2", "note": "[compound 1813]", "class": "3 (Class 3 The value of percent of control at 10^−7 M was more than 60% or the value of IC50 was more than 200 nM.)"},
      {"smiles": "CN(C)c1nc(N[C@H]2CC[C@@H](NC(=O)Nc3cccc(Cl)c3)CC2)nc2c1CCCC2", "note": "[compound 1814]", "class": "3 (Class 3 The value of percent of control at 10^−7 M was more than 60% or the value of IC50 was more than 200 nM.)"},
      {"smiles": "CN(C)c1nc(N[C@H]2CC[C@@H](NC(=O)Nc3ccc(Cl)cc3)CC2)nc2c1CCCC2", "note": "[compound 1815]", "class": "3 (Class 3 The value of percent of control at 10^−7 M was more than 60% or the value of IC50 was more than 200 nM.)"}
    ]}
  ]
}
